Patent US10130633B2, “Compounds” (BAYER PHARMA AKTIENGESELLSCHAFT, priority 2013, dated 2018)

Tests used:
[1] = system: constitutive active colorectal cancer cell (CRC) Wnt pathway; assay: HCT116 TOPFlash cellular reporter assay (Super TopFlash luciferase), constitutive active Wnt pathway; format: cell-based; conditions: HCT116 TOP reporter cells, 36 hours incubation, luciferase expression
Description: In order to discover and characterize small molecules which inhibit the constitutive active colorectal cancer cell (CRC) Wnt pathway, a cellular reporter assay was employed. […] Stable transfectants were generated by cotransfection with pcDNA3 and selection of stable transfected cells with 1 mg/ml G418.

[2] = system: HCT116 FOP control reporter cell line; assay: HCT116 FOPFlash control reporter assay (FOP control vector, non-functional TCF elements); format: cell-based; conditions: HCT116 FOP control reporter cells, 36 hours incubation, luciferase expression
From the text: In a parallel approach, HCT116 cells were cotransfected with the FOP control vector and pcDNA3. The FOP vector is identical to the TOP construct, but it contains instead of functional TCF elements a randomized, non-functional sequence. For this transfection a stable transfected cell line was generated as well.

Structure (SMILES) | IC50 [1] | IC50 [2] | IC50 ([1]; Homo sapiens, HCT-116, 36 h) | IC50 ([2]; Homo sapiens, HCT-116, 36 h)
CC(C(=O)Nc1cc(NC(=O)c2ccc(-c3ccccc3F)nc2)ccc1OC(F)(F)F)N1CCOCC1 (stereo not drawn) [Example 213, 6-(2-fluorophenyl)-N-[3-{[2-(morpholin-4-yl)propanoyl]amino}-4-(trifluoromethoxy)phenyl] nicotinamide] | 140 nM | ≥ 50000 nM | – | –
O=C(CN1C[C@@H]2C[C@H]1CO2)Nc1cc(C(=O)Nc2ccc(-c3cc(F)cc(F)c3)nc2)ccc1OC(F)(F)F [Example 214, N-[6-(3,5-difluorophenyl)pyridin-3-yl]-3-{[(1S,4S)-2-oxa-5-azabicyclo[2.2.1]hept-5-ylacetyl]amino}-4-(trifluoromethoxy)benzamide] | – | – | 375 nM | 6300 nM
CC(C(=O)Nc1cc(C(=O)Nc2ccc(-c3cc(F)cc(F)c3)nc2)ccc1OC(F)(F)F)N1CC2CCC(C1)O2 (stereo not drawn) [Example 215, N-[6-(3,5-difluorophenyl)pyridin-3-yl]-3-{[2-(8-oxa-3-azabicyclo[3.2.1]oct-3-yl)propanoyl]amino}-4-(trifluoromethoxy)benzamide] | 245 nM | 3300 nM | – | –
O=C(CN1CC2CCC(C1)O2)Nc1cc(NC(=O)c2ccc(-c3cc(F)cc(F)c3)nc2)ccc1OC(F)(F)F [Example 216, 6-(3,5-difluorophenyl)-N-{3-[(8-oxa-3-azabicyclo[3.2.1]oct-3-ylacetyl)amino]-4-(trifluoromethoxy)phenyl} nicotinamide] | – | – | 260 nM | 3600 nM
CC(C(=O)Nc1cc(NC(=O)c2ccc(-c3cc(F)cc(F)c3)nc2)ccc1OC(F)(F)F)N1CC2CCC(C1)O2 (stereo not drawn) [Example 218, 6-(3,5-difluorophenyl)-N-[3-{[2-(8-oxa-3-azabicyclo[3.2.1]oct-3-yl)propanoyl]amino}-4-(trifluoromethoxy)phenyl] nicotinamide] | 330 nM | 15000 nM | – | –
CC(C(=O)Nc1cc(NC(=O)c2ccc(-c3cc(F)cc(F)c3)nc2)ccc1OC(F)(F)F)N1CCOCC1 (stereo not drawn) [Example 219, 6-(3,5-difluorophenyl)-N-[3-{[2-(morpholin-4-yl)propanoyl]amino}-4-(trifluoromethoxy)phenyl] nicotinamide] | 245 nM | ≥ 50000 nM | – | –
CC(C(=O)Nc1cc(NC(=O)c2ccc(-c3cccc(F)c3)nc2)ccc1OC(F)(F)F)N1CC2CCC(C1)O2 (stereo not drawn) [Example 220, 6-(3-fluorophenyl)-N-[3-{[2-(8-oxa-3-azabicyclo[3.2.1]oct-3-yl)propanoyl]amino}-4-(trifluoromethoxy)phenyl] nicotinamide] | 375 nM | 13000 nM | – | –
CC(C(=O)Nc1cc(C(=O)Nc2ccc(-c3cc(F)cc(F)c3)nc2)ccc1OC(F)(F)F)N1CCOCC1 (stereo not drawn) [Example 221, N-[6-(3,5-difluorophenyl)pyridin-3-yl]-3-{[2-(morpholin-4-yl)propanoyl]amino}-4-(trifluoromethoxy)benzamide] | 235 nM | 12200 nM | – | –
CC(C(=O)Nc1cc(C(=O)Nc2ccc(-c3cc(F)cc(F)c3)nc2)ccc1OC(F)(F)F)N1C[C@@H]2C[C@H]1CO2 (stereo partly drawn) [Example 223, N-[6-(3,5-difluorophenyl)pyridin-3-yl]-3-({2-[(1S,4S)-2-oxa-5-azabicyclo[2.2.1]hept-5-yl]propanoyl}amino)-4-(trifluoromethoxy)benzamide] | – | – | 238 nM | 17100 nM
CC(C(=O)Nc1cc(NC(=O)c2ccc(-c3ccccc3F)nc2)ccc1OC(F)(F)F)N1CCOCC1 (stereo not drawn) [Example 224, 6-(2-fluorophenyl)-N-[3-{[2-(morpholin-4-yl)propanoyl]amino}-4-(trifluoromethoxy)phenyl] nicotinamide] | 382 nM | ≥ 50000 nM | – | –
CC(C(=O)Nc1cc(C(=O)Nc2ccc(-c3ccccc3F)nc2)ccc1C(F)(F)F)N1CCOCC1 (stereo not drawn) [Example 225, N-[6-(2-fluorophenyl)pyridin-3-yl]-3-{[2-(morpholin-4-yl)propanoyl]amino}-4-(trifluoromethyl)benzamide] | 237 nM | 11200 nM | – | –
O=C(CN1CC2CCC(C1)O2)Nc1cc(C(=O)Nc2ccc(-c3ccccc3F)nc2)ccc1C(F)(F)F [Example 226, N-[6-(2-fluorophenyl)pyridin-3-yl]-3-[(8-oxa-3-azabicyclo[3.2.1]oct-3-ylacetyl)amino]-4-(trifluoromethyl)benzamide] | – | – | 245 nM | 6500 nM
O=C(CN1CCN(C2CC2)CC1)Nc1cc(C(=O)Nc2ccc(-c3ccccc3F)nc2)ccc1C(F)(F)F [Example 227, 3-{[(4-cyclopropylpiperazin-1-yl)acetyl]amino}-N-[6-(2-fluorophenyl)pyridin-3-yl]-4-(trifluoromethyl)benzamide] | – | – | 245 nM | 10200 nM
CN(C(=O)CN1CCOCC1)c1cc(C(=O)Nc2ccc(-c3ccccc3)nc2)ccc1OC(F)(F)F [Example 228, 3-[methyl(morpholin-4-ylacetyl)amino]-N-(6-phenylpyridin-3-yl)-4-(trifluoromethoxy)benzamide] | – | – | 2870 nM | 29000 nM
COc1ccc(NC(=O)c2ccc(-c3ccc(F)cc3)nc2)cc1NC(=O)CN1CCOCC1 [Example 229, 6-(4-fluorophenyl)-N-{4-methoxy-3-[(morpholin-4-ylacetyl)amino]phenyl} nicotinamide] | – | – | 2300 nM | ≥ 50000 nM
CC(C(=O)Nc1cc(C(=O)Nc2nnc(-c3ccccc3)s2)ccc1CS(C)(=O)=O)N1CCN(C)CC1 (stereo not drawn) [Example 231, 3-{[2-(4-methylpiperazin-1-yl)propanoyl]amino}-4-[(methylsulfonyl)methyl]-N-(5-phenyl-1,3,4-thiadiazol-2-yl)benzamide] | 1020 nM | – | – | ≥ 50000 nM
CC(C(=O)Nc1cc(C(=O)Nc2nnc(-c3ccccc3)s2)ccc1CS(C)(=O)=O)N1CCN(C)CC1 (stereo not drawn) [Example 232, 3-{[2-(4-methylpiperazin-1-yl)propanoyl]amino}-4-[(methylsulfonyl)methyl]-N-(5-phenyl-1,3,4-thiadiazol-2-yl)benzamide] | 2200 nM | ≥ 50000 nM | – | –
O=C(CN1CCN(CC(F)(F)F)CC1)Nc1cc(C(=O)Nc2ccc(-c3ccccc3F)nc2)ccc1OC(F)(F)F [Example 233, N-[6-(2-fluorophenyl)pyridin-3-yl]-3-({[4-(2,2,2-trifluoroethyl)piperazin-1-yl]acetyl}amino)-4-(trifluoromethoxy)benzamide] | – | – | 985 nM | ≥ 50000 nM
CC(C(=O)Nc1cc(C(=O)Nc2nnc(-c3ccccc3)s2)ccc1OC(F)(F)F)N1CCN(C2CC2)CC1 (stereo not drawn) [Example 234, 3-{[2-(4-cyclopropylpiperazin-1-yl)propanoyl]amino}-N-(5-phenyl-1,3,4-thiadiazol-2-yl)-4-(trifluoromethoxy)benzamide] | – | – | 635 nM | 40500 nM
CS(=O)(=O)Cc1ccc(C(=O)Nc2nnc(-c3ccccc3)s2)cc1NC(=O)CN1CCOCC1 [Example 235, 4-[(methylsulfonyl)methyl]-3-[(morpholin-4-ylacetyl)amino]-N-(5-phenyl-1,3,4-thiadiazol-2-yl)benzamide] | – | – | 1310 nM | ≥ 50000 nM
CN1CCN(C2(C(=O)Nc3cc(C(=O)Nc4ccc(-c5ccccc5F)nc4)ccc3OC(F)(F)F)CC2)CC1 [Example 236, N-[6-(2-fluorophenyl)pyridin-3-yl]-3-({[1-(4-methylpiperazin-1-yl)cyclopropyl]carbonyl}amino)-4-(trifluoromethoxy)benzamide] | – | – | 276 nM | ≥ 50000 nM
